Patent US20260200982A1, “HER RECEPTOR DERIVED PEPTIDES AND METHODS OF USE THEREOF” (Ramot at Tel-Aviv University Ltd., priority 2022, published 2026)
“Also recorded” adds a separate entry of the source. The star is where a group is joined. Myristoyl = CCCCCCCCCCCCCC(=O)*

Columns and labels:
[1] = test system: SKBR3 breast cancer cells; assay type: cell-based, human
Description: (§1) Cell lines—Human breast cancer cell lines SKBR3 [Peles E et al. EMBO J. (1993) 12(3):961-71] and MCF7 [Faigenbloom L et al., Mol Syst Biol. (2015) 11(12):845] and human glioblastoma U87 [Goldberg L et al. Cancer Res. (2006) 66(24):11709-17] cell line, as well as Rat-1 fibroblast cells and H-Ras-transformed Rat-1 cells (EJ cells) [Marom M et al. J Biol Chem. (1995) 270(38):22263-70] and human Panc-1 and MIA PaCa-2 pancreatic cell lines (Rak R et al. Oncoscience. 2014 1(1):39-48; Weisz B et al. Oncogene (1999) 18, 2579±2588) were all grown in Dulbecco's modified Eagle's medium (DMEM; Biological Industries, Beithaemek, Israel). Human colorectal cancer cell lines DLD-1 (ATTC Cat No. CCL-221), HCT-116 (ATTC Cat No. CCL-247) and LNCaP prostate cancer cells were grown in Roswell Park Memorial Institute 1640 (RPMI 1640) medium and McCoy's 5A media, respectively (Sigma-Aldrich). All media were supplemented with antibiotics and 10% heat-inactivated fetal bovine serum (FBS; Gibco). Human breast cell line MCF10A [Bott A et al. Oncotarget. (2017) 8(27):43897-43914] was grown in Dulbeco's Modified Eagle's Medium/Nutrient Mixture F-12 HAM medium (DMEM F-12 HAM; Sigma-Aldrich), supplemented with antibiotics, 5% inactivated horse serum (HS; Invitrogen), 2 mM L-glutamine (Biological Industries, Beithaemek, Israel), 0.1 μg/ml cholera toxin (Sigma-Aldrich), 0.5 μg/ml hydrocortisone (Sigma-Aldrich), 10 μg/ml insulin (Biological Industries, Beithaemek, Israel) and 2 ng/ml EGF (R&D Systems). Cells were incubated at 37° C. in 5% CO2 in air, and the medium was changed every 3-4 days. Cells were passaged in trypsin/disodium ethylenediaminetetraacetic acid (Biological Industries, Beithaemek, Israel) when confluency reached 70%. One day prior to treatment the cells were plated at ~50% confluency in a medium supplemented with 10% FBS or 5% HS, accordingly.
(§2) Methylene blue viability assay—Cells were plated in 96-wells plates at cell densities of 1.5×10^3 (EJ, DLD-1), 3×10^3 (Rat-1, HCT-116, U87), 5×10^3 (SKBR3, MCF7) and 6×10^3 (MCF10A) cells/well. […] Cell number determination was performed as described previously. IC-50 values were calculated using a non-linear regression model (logarithmic inhibitor vs. normalized response-variable slope) with the GraphPad Prism 6 software.

MCF7 breast cancer cells = assay type: cell-based, human; conditions: MCF7
Description: as §1, §2

[2] = test system: Panc-1 (pancreatic cancer) tumor xenografts; assay: Pancreatic Tumor Growth in Nude Mice; assay type: in vivo; conditions: Panc-1 xenografts, 25 μg intraperitoneal daily, FIGS. 9A-C
Description: Pancreatic Tumor Growth in Nude Mice—The study was conducted according to the NIH Guidelines for Use and Care of Laboratory Animals and following the approval by Animal Care Committee of the Tel Aviv University. Nude CD1-Nu mice (25-30 g) housed in barrier facilities on a 12-h light/dark cycle one week prior to the injection of tumor cells (day zero). On day zero, 2×10^6 Panc 1 cells in 0.1 ml of PBS were implanted subcutaneously just above the right femoral joint. Tumor size was measured every 3-4 days. When the tumors were apparently seen and the calculated tumor size was 40 mm^3, the animals were divided randomly into two groups of mice (control vehicle treated and myr-NLS (SEQ ID NO: 5) treated; 8 mice per group). Treatment with the myr-NLS (SEQ ID NO: 5) was performed by intraperitoneal injection of 25 μg in 100 μl PBS (or 100 μl PBS for control mice) every day. Tumors size was measured 3 times a week. At the end of the experiment, the mice were sacrificed, and the tumors were dissected and used for further analysis.

[3] = test system: DLD-1 colon cancer tumor xenografts; assay: Colon Tumor Growth in Nude Mice; assay type: in vivo; conditions: DLD-1 xenografts, 25 μg/100 μl PBS intraperitoneal daily, FIGS. 14A-C
Description: Colon Tumor Growth in Nude Mice—Nude CD1-Nu mice (25-30 g) housed in barrier facilities on a 12-h light/dark cycle one week prior to the injection of tumor cells (day zero). On day zero, 5×10^6 DLD-1 cells were implanted subcutaneously just above the right femoral joint. Tumor size was measured every 3-4 days. When the tumors were apparently seen, the animals were divided randomly into three groups of mice [control vehicle treated, myr-NLS1 (SEQ ID NO: 5), myr-NLS4 (SEQ ID NO: 17)]. Treatment was performed by intraperitoneal injection of 25 μg in 100 μl PBS every day. Mice were weighed and tumors size was measured 3 times a week. At the end of the experiment, the mice were sacrificed, and the tumors were dissected and used for further analysis.

[4] = test system: MIA PaCa-2 pancreatic cancer cells; assay: Methylene blue viability assay, MIA PaCa-2; assay type: cell-based, human; conditions: MiaPaCa2; 72 hours; FIGS. 4B and 4C; read-out: IC50 (cell viability)
Description: Cell lines—Human breast cancer cell lines SKBR3 [Peles E et al. EMBO J. (1993) 12(3):961-71] and MCF7 [Faigenbloom L et al., Mol Syst Biol. (2015) 11(12):845] and human glioblastoma U87 [Goldberg L et al. Cancer Res. (2006) 66(24):11709-17] cell line, as well as Rat-1 fibroblast cells and H-Ras-transformed Rat-1 cells (EJ cells) [Marom M et al. J Biol Chem. (1995) 270(38):22263-70] and human Panc-1 and MIA PaCa-2 pancreatic cell lines (Rak R et al. Oncoscience. 2014 1(1):39-48; Weisz B et al. Oncogene (1999) 18, 2579±2588) were all grown in Dulbecco's modified Eagle's medium (DMEM; Biological Industries, Beithaemek, Israel). Human colorectal cancer cell lines DLD-1 (ATTC Cat No. CCL-221), HCT-116 (ATTC Cat No. CCL-247) and LNCaP prostate cancer cells were grown in Roswell Park Memorial Institute 1640 (RPMI 1640) medium and McCoy's 5A media, respectively (Sigma-Aldrich). All media were supplemented with antibiotics and 10% heat-inactivated fetal bovine serum (FBS; Gibco). Human breast cell line MCF10A [Bott A et al. Oncotarget. […]
Methylene blue viability assay—Cells were plated in 96-wells plates at cell densities of 1.5×10^3 (EJ, DLD-1), 3×10^3 (Rat-1, HCT-116, U87), 5×10^3 (SKBR3, MCF7) and 6×10^3 (MCF10A) cells/well. […] IC-50 values were calculated using a non-linear regression model (logarithmic inhibitor vs. normalized response-variable slope) with the GraphPad Prism 6 software.

nucleolin = nucleolin (Homo sapiens, UniProt P19338); assay: Immunoblotting of cell lysates, nucleolin level; assay type: cell-based; set-up: endogenous in cells; host or cells: DLD-1, Panc-1; conditions: DLD-1 or Panc-1 cells; 24 hours; 25 μM and 10 μM; FIGS. 13A-B
Sequence of nucleolin (P19338 whole entry): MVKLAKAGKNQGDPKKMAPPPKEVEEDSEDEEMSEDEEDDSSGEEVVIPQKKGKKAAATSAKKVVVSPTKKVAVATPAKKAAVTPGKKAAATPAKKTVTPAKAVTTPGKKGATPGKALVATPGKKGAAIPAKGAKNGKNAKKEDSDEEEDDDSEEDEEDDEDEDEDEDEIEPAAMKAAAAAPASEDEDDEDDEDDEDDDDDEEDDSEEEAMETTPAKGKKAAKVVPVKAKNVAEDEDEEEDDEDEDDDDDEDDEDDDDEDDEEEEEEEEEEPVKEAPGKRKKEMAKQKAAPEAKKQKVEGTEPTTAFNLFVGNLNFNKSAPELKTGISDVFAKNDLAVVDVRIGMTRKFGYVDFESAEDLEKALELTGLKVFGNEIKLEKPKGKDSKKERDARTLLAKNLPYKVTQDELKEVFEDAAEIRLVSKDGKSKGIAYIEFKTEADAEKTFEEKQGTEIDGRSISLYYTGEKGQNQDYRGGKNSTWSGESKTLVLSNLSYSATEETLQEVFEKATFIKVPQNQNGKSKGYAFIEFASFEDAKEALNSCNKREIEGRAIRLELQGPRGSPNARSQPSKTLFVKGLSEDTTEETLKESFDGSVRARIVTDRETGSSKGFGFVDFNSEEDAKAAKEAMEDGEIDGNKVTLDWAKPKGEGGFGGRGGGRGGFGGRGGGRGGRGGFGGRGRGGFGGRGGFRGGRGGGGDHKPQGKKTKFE
Description: (§3) Lysate preparation and immunoblotting—Cells were seeded at cell densities of 1.5×10^5 (DLD-1), 1.8×10^5 (HCT-116) and 2.5×10^5 (SKBR3) cells/well, treated as indicated and grown for 24 hours. Following, cells were lysed in solubilization buffer; the lysates were cleared by centrifugation and a boiling gel sample buffer was added. Proteins were resolved by SDS-polyacrylamide gel electrophoresis through 10% polyacrylamide gels, and were electrophoretically transferred to nitrocellulose membranes. Membranes were blocked in TBST buffer containing 6% milk, and blotted with primary antibodies. Following, a secondary antibody linked to horseradish peroxidase was added. Immunoreactive bands were detected with the enhanced chemiluminescence reagent Immobilon Crescendo Western HRP substrate (WBLUR0100; Merck Millipore).

EGFR (ErbB1) = assay: Immunoblotting of cell lysates, EGFR phosphorylation; assay type: cell-based, human; conditions: DLD-1 or Panc-1 cells; 24 hours; 25 μM and 10 μM; FIGS. 13A-B
Description: as §3

With “Myr-RRRHIVRKRTLRRLL-OH (Myristoyl-RRRHIVRKRTLRRLL-OH; SMILES CCCCCCCCCCCCCC(=O)N[C@@H](CCCNC(=N)N)C(=O)N[C@@H](CCCNC(=N)N)C(=O)N[C@@H](CCCNC(=N)N)C(=O)N[C@@H](Cc1c[nH]cn1)C(=O)N[C@H](C(=O)N[C@H](C(=O)N[C@@H](CCCNC(=N)N)C(=O)N[C@@H](CCCCN)C(=O)N[C@@H](CCCNC(=N)N)C(=O)N[C@H](C(=O)N[C@@H](CC(C)C)C(=O)N[C@@H](CCCNC(=N)N)C(=O)N[C@@H](CCCNC(=N)N)C(=O)N[C@@H](CC(C)C)C(=O)N[C@@H](CC(C)C)C(=O)O)[C@@H](C)O)C(C)C)[C@@H](C)CC) [myr-NLS]” the “viability of SKBR3 breast cancer cells” value ([1]; 80 μM peptide for 72 hours, FIG. 4A) was “significantly reduced viability”, the IC50 ([1]; SKBR3, 72 hours, FIGS. 4B and 4C, read-out: IC50 (cell viability)) was 20.6 µM and the “effect on viability as compared to non-transformed MCF10 cells” value ([1]; SKBR3, FIG. 4C) was “much more pronounced”. For the same substance, the IC50 (MCF7 breast cancer cells; 72 hours, FIGS. 4B and 4C, read-out: IC50 (cell viability)) was 23.5 µM, the “effect on viability as compared to non-transformed MCF10 cells” value (MCF7 breast cancer cells; FIG. 4C) was “much more pronounced” and the “tumor growth (tumor size, tumor weight)” value [2] was “significantly reduced tumor cell growth; also recorded: inhibits pancreatic tumor growth”. For the same substance, the “tumor growth (tumor size, tumor weight)” value [3] was “significantly reduced tumor cell growth”, the IC50 [4] was 3.95 µM and the “levels of expression of nucleolin” value (nucleolin) was “reduced the levels of expression”. For the same substance, the “levels of phosphorylated EGFR” value (EGFR (ErbB1)) was “reduced”.
